Values quoted from earlier work as cited in patent US7611715B2, “Agaricus extract for preventing the induction or metastasis of cancer” (SSI Co., Ltd., priority 2002, dated 2009).

Details: calculated

SMILES: CCOC(N)=O [Urethane, ethyl carbamate]
- safety dose (virtually safe dose, VSD) in human for liver cancer: 7.2e-05 mg/kg body weight
